According to ChEMBL document CHEMBL3124743, “Imaging evaluation of 5HT2C agonists, [(11)C]WAY-163909 and [(11)C]vabicaserin, formed by Pictet-Spengler cyclization” (J Med Chem, 2014):

What was measured:
Brain [1] = assay: Drug uptake in Papio anubis assessed as maximal uptake in brain at 2.33 mCi, iv after 20 mins of injection by PET imaging; assay type: ADME, organism-based; conditions: in vivo
Brain [2] = assay: Drug uptake in Papio anubis assessed as retention time in brain at 2.33 mCi, iv by PET imaging; assay type: ADME, organism-based
Brain [3] = assay: Drug uptake in Sprague-Dawley rat assessed as retention time in brain at 0.303 mCi, iv by PET imaging; assay type: ADME, organism-based
Brain [4] = assay: Drug uptake in Sprague-Dawley rat in regions outside brain at 0.303 mCi, iv by PET imaging; assay type: ADME, organism-based; conditions: in vivo
[5] = Octanol-water partition coefficient, log D of the compound at pH 7.4; assay type: physicochemical
[6] = Fraction unbound in Papio Anubis plasma at 2.33 mCi, iv by PET imaging; assay type: ADME, organism-based
[7] = molecular target: T1, 5-hydroxytryptamine receptor 2C (Homo sapiens, UniProt P28335); assay: Displacement of [125I]DOI from human 5-HT2C receptor
T1 sequence (P28335 whole entry): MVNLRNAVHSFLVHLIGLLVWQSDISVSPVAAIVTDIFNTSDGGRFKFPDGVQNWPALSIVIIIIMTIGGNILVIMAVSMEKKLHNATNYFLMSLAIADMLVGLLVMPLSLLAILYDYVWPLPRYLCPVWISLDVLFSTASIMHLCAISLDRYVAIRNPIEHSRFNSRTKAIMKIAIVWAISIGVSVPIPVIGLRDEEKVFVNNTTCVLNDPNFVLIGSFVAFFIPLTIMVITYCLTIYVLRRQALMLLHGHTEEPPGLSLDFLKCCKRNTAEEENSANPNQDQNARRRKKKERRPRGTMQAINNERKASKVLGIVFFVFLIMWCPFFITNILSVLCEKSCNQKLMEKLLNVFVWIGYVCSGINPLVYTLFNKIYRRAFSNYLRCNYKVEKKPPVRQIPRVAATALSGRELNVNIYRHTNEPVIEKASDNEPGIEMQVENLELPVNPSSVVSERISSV

Brain [8] = assay: Drug uptake in Sprague-Dawley rat assessed as retention time in brain at 0.99 mCi, iv by PET imaging; assay type: ADME, organism-based

Structure (SMILES): c1cc2c3c(c1)[C@H]1CCC[C@H]1N3CCN[11CH2]2
- Drug uptake (Brain [1]): Active
- Retention_time (Brain [2]): 80 min
- Retention_time (Brain [3]): 60 min
- Drug uptake (Brain [4]): Active
- logD [5]: 1.53
- fraction unbound [6]: 0.265

Structure (SMILES): c1cc2c3c(c1)[C@H]1CCC[C@H]1CN3CCNC2 [VABICASERIN]
- Ki [7]: 3 nM

Structure (SMILES): c1cc2c3c(c1)[C@H]1CCC[C@H]1CN3CCN[11CH2]2
- Retention_time (Brain [8]): 60 min
